Consider five compounds from publication PMC10175918 (Communications Biology, 2023).

Read-outs that look alike come from different tables or passages of the source.

What all share (assay): TGFα-shedding assay-based GPCR screening with chimeric Gα subunit proteins
Common to all, as to assay type: cell-based

Test [1] has as its target T1, 348 GPCRs (Homo sapiens, UniProt P30542).
T1 sequence (P30542 1-326): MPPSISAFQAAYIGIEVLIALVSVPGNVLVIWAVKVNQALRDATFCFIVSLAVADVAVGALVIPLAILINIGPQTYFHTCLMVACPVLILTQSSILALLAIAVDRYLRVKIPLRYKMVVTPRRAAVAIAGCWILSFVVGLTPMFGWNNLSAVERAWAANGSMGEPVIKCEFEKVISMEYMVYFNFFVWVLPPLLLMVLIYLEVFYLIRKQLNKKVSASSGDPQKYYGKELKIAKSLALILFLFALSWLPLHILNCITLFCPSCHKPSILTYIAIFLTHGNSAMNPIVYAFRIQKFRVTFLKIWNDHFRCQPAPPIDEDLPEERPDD
Particulars: 10µM, Favipiravir 100μM.

Test [2] deals with T2, 348 GPCRs (Homo sapiens, UniProt P33032).
T2 construct: expressed in transfected cells; host or cells: HEK293A

The target in test [3] is T3, 348 GPCRs (Homo sapiens, UniProt P49019).
T3 construct: expressed in transfected cells; host or cells: HEK293A
To be noted: 10µM, Favipiravir 100μM.

Test [4] deals with T4, 348 GPCRs (Homo sapiens, UniProt P49682).
T4 construct: expressed in transfected cells; host or cells: HEK293A
T4 sequence (P49682 1-368): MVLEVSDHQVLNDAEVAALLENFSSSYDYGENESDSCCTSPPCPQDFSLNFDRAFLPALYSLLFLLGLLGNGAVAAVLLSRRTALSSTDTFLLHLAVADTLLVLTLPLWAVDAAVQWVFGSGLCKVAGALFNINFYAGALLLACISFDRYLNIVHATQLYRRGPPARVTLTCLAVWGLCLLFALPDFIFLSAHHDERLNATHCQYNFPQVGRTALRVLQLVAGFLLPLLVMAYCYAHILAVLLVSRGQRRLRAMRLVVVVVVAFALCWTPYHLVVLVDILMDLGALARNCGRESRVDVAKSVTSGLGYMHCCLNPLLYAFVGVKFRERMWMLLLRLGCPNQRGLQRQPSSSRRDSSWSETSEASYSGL

Test [5] addresses T5, 348 GPCRs (Homo sapiens, UniProt P51582).
T5 construct: expressed in transfected cells; host or cells: HEK293A

Test [6] addresses T6, 348 GPCRs (Homo sapiens, UniProt Q13585).
T6 construct: expressed in transfected cells; host or cells: HEK293A

In test [7] the target is T7, 348 GPCRs (Homo sapiens, UniProt Q7Z7M1).
T7 construct: expressed in transfected cells; host or cells: HEK293A
To be noted: 10µM, Favipiravir 100μM.

The target of test [8] is T8, 348 GPCRs (Homo sapiens, UniProt Q969N4).
T8 construct: expressed in transfected cells; host or cells: HEK293A
T8 sequence (Q969N4 1-342): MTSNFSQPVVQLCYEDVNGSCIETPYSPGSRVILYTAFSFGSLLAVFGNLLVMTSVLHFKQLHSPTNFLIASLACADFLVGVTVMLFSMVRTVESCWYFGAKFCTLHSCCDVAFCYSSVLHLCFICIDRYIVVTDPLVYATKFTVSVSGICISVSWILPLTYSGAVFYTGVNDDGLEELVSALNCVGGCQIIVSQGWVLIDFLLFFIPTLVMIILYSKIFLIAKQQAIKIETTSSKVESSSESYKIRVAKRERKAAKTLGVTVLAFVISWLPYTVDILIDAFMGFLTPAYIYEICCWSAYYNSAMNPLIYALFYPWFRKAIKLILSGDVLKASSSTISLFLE
Particulars: 10µM, Favipiravir 100μM.

Test [9] deals with T9, 348 GPCRs (Homo sapiens, UniProt Q9BXA5).
T9 construct: expressed in transfected cells; host or cells: HEK293A
T9 sequence (Q9BXA5 1-334): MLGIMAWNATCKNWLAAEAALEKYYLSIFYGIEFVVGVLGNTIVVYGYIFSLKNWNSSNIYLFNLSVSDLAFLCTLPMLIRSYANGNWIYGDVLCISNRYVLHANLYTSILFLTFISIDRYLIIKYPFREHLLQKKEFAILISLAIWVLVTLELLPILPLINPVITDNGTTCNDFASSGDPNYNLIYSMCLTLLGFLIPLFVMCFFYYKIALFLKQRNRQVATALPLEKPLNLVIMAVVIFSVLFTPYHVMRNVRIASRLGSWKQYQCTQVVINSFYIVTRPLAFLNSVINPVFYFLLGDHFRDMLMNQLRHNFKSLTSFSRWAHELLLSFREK
Particulars: 10µM, Favipiravir 100μM.

Test [10] deals with T10, 348 GPCRs (Homo sapiens, UniProt Q9NYV9).
T10 construct: expressed in transfected cells; host or cells: HEK293A
T10 sequence (Q9NYV9 1-303): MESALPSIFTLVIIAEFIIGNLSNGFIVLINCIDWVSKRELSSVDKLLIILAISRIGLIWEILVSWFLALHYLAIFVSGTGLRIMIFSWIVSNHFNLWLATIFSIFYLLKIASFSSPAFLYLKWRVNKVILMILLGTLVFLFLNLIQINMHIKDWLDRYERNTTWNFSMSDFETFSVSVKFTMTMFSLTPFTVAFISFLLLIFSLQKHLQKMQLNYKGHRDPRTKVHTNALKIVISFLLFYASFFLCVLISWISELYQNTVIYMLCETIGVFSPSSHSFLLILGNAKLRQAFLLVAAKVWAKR
Particulars: 10µM, Favipiravir 100μM.

Test [11] concerns the target T11, 348 GPCRs (Homo sapiens, UniProt Q9P296).
T11 construct: expressed in transfected cells; host or cells: HEK293A
Particulars: 10µM, Favipiravir 100μM.

Test [12] deals with T12, 348 GPCRs (Homo sapiens, UniProt Q9Y2T6).
T12 construct: expressed in transfected cells; host or cells: HEK293A

Setting [13] is: ADORA1 (adenosine A1 receptor), read-out: % GPCR activation compared to TPA.
The mark [14] stands for this setting: GPCR MC5R (melanocortin 5 receptor), read-out: % GPCR activation compared to TPA.
Setting [15] is: HCA3 (hydroxycarboxylic Acid Receptor 3), read-out: % GPCR activation compared to TPA.
Setting [16] is: GPCR CXCR3 (C-X-C motif chemokine receptor 3), read-out: % GPCR activation compared to TPA.
Setting [17] is: GPCR P2Y4 (pyrimidinergic receptor P2Y, G-protein coupled, 4), read-out: % GPCR activation compared to TPA.
Setting [18] is: GPCR GPR50 (G Protein-Coupled Receptor 50), read-out: % GPCR activation compared to TPA.
Where [19] appears, read: GPR144 (Adhesion G Protein-Coupled Receptor D2 (ADGRD2)), read-out: % GPCR activation compared to TPA.
Setting [20] is: TAAR8 (trace amine associated receptor 8), read-out: % GPCR activation compared to TPA.
[21] abbreviates: SUCNR1 (succinate receptor 1), read-out: % GPCR activation compared to TPA.
Where [22] appears, read: TAS2R13 (taste receptor, type 2, member 13), read-out: % GPCR activation compared to TPA.
[23] abbreviates: GPR77 (complement component 5a receptor 2 (C5AR2)), read-out: % GPCR activation compared to TPA.
Where [24] appears, read: GPCR GPR55 (G Protein-Coupled Receptor 55), read-out: % GPCR activation compared to TPA.
Setting [25] is: read-out: % GPCR activation compared to TPA, ADORA1 (adenosine A1 receptor).
[26] abbreviates: read-out: % GPCR activation compared to TPA, GPCR MC5R (melanocortin 5 receptor).
Where [27] appears, read: read-out: % GPCR activation compared to TPA, HCA3 (hydroxycarboxylic Acid Receptor 3).
The mark [28] stands for this setting: read-out: % GPCR activation compared to TPA, GPCR CXCR3 (C-X-C motif chemokine receptor 3).
Where [29] appears, read: read-out: % GPCR activation compared to TPA, GPCR P2Y4 (pyrimidinergic receptor P2Y, G-protein coupled, 4).
Where [30] appears, read: read-out: % GPCR activation compared to TPA, GPCR GPR50 (G Protein-Coupled Receptor 50).
[31] abbreviates: read-out: % GPCR activation compared to TPA, GPR144 (Adhesion G Protein-Coupled Receptor D2 (ADGRD2)).
[32] abbreviates: read-out: % GPCR activation compared to TPA, TAAR8 (trace amine associated receptor 8).
[33] abbreviates: read-out: % GPCR activation compared to TPA, SUCNR1 (succinate receptor 1).
Setting [34] is: read-out: % GPCR activation compared to TPA, TAS2R13 (taste receptor, type 2, member 13).
[35] abbreviates: read-out: % GPCR activation compared to TPA, GPR77 (complement component 5a receptor 2 (C5AR2)).
[36] abbreviates: read-out: % GPCR activation compared to TPA, GPCR GPR55 (G Protein-Coupled Receptor 55).

T11 sequence (Q9P296 whole entry): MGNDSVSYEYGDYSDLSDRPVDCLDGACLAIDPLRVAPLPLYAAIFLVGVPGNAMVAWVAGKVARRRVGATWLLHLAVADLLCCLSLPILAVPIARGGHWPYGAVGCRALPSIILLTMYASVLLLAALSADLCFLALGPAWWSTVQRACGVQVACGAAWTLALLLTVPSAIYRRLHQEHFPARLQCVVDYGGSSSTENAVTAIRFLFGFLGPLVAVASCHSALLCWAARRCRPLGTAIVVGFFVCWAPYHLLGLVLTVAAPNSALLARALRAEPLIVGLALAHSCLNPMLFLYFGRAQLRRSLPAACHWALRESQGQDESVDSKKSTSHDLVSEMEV
T3 sequence (P49019 whole entry): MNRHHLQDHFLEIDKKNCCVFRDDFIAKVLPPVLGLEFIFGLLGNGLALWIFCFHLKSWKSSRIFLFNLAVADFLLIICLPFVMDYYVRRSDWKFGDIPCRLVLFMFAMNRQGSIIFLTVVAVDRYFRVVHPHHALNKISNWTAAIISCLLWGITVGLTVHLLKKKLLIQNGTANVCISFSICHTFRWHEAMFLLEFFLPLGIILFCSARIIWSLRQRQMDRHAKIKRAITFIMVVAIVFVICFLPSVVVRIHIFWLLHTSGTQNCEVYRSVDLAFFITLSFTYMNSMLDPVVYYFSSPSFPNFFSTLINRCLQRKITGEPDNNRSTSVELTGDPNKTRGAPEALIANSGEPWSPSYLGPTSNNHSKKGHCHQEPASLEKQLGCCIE
T6 sequence (Q13585 whole entry): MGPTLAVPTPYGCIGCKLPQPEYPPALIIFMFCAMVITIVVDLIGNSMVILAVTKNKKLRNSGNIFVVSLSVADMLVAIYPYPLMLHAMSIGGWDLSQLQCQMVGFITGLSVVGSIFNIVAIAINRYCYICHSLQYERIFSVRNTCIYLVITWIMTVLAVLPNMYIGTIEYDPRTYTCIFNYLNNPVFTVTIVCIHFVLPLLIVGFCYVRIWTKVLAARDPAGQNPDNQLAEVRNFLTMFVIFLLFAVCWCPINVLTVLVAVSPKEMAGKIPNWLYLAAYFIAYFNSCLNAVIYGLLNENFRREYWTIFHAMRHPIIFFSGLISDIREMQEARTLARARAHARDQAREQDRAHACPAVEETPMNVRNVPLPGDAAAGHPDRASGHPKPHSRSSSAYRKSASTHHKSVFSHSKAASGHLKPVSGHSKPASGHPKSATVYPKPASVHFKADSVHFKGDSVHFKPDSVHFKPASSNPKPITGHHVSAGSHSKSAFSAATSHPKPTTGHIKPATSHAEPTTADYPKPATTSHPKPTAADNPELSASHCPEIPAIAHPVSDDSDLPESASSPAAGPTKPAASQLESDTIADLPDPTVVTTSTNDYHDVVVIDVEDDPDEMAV
T2 sequence (P33032 whole entry): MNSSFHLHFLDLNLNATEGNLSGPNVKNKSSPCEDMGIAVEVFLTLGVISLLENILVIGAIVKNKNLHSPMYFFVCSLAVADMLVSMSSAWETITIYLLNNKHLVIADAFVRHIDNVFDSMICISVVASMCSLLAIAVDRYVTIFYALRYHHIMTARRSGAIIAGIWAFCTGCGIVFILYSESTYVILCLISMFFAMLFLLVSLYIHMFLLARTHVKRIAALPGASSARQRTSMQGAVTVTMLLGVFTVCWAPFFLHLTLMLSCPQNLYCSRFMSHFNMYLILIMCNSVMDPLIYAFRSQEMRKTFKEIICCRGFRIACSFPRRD
T12 sequence (Q9Y2T6 whole entry): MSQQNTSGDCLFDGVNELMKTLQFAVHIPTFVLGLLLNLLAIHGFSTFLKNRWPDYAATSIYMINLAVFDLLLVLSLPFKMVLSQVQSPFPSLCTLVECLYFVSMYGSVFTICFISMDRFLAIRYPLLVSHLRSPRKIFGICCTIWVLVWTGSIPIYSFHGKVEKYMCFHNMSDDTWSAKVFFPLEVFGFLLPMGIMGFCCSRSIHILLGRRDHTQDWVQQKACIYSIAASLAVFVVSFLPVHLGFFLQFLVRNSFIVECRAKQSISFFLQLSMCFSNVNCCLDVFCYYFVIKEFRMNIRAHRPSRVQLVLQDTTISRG
T5 sequence (P51582 whole entry): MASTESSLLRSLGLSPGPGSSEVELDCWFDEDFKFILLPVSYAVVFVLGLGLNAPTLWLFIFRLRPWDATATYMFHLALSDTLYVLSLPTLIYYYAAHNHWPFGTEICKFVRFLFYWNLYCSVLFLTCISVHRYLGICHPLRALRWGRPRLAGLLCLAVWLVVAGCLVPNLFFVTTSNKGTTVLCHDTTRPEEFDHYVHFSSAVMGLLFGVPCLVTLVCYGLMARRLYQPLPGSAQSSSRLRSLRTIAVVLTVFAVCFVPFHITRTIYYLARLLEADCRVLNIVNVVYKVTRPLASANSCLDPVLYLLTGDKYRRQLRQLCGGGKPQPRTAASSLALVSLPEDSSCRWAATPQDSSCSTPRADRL
T7 sequence (Q7Z7M1 whole entry): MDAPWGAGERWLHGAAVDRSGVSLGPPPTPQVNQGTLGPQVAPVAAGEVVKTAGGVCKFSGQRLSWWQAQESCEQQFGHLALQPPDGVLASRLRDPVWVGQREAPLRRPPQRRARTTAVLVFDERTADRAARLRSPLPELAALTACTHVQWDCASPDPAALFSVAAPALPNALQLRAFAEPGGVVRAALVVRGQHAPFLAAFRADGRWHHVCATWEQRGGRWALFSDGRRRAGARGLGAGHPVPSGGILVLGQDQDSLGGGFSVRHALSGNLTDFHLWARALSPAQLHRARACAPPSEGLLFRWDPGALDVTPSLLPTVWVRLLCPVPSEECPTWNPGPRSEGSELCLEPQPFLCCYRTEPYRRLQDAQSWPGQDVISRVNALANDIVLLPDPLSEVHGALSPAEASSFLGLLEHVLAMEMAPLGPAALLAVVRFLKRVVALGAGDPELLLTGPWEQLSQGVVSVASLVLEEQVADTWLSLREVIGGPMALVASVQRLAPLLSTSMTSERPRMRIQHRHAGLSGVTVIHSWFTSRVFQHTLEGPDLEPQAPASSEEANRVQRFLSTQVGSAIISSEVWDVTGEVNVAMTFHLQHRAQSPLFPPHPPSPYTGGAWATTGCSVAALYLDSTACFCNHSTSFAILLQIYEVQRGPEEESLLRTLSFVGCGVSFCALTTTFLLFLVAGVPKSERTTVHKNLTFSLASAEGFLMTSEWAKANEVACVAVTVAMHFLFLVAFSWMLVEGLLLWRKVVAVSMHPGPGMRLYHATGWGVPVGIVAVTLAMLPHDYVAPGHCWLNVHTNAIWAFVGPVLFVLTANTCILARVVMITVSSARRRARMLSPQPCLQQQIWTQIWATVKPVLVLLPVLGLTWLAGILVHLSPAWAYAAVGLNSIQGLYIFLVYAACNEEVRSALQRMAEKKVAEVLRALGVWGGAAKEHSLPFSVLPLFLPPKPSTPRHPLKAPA

Turning to `CC(C)C(=O)OC[C@H]1O[C@@H](n2ccc(NO)nc2=O)[C@H](O)[C@@H]1O` [molnupiravir], the activation at 100 µM at 348 GPCRs [1] (setting [13]) was -3.9%; on 348 GPCRs [3] (setting [15]), -2.64%; on 348 GPCRs [7] (setting [19]) it was -1.45%; on 348 GPCRs [8] (setting [20]) it was -0.135%; on 348 GPCRs [10] (setting [22]) it was -0.971%; at 348 GPCRs [11] (setting [23]) it was -1.07%. For the same compound, the activation at 10 µM is -1.47% at 348 GPCRs [2] (setting [14]); -2.3% at 348 GPCRs [4] (setting [16]); -12.8% at 348 GPCRs [5] (setting [17]); -1.45% at 348 GPCRs [6] (setting [18]); -1.93% on 348 GPCRs [9] (setting [21]); 0.0448% at 348 GPCRs [12] (setting [24]).

Regarding `CC(C)OC(=O)[C@H](C)N[P@](=O)(OC[C@H]1O[C@@H](n2ccc(=O)[nH]c2=O)[C@](C)(F)[C@@H]1O)Oc1ccccc1` [sofosbuvir], the activation at 100 µM at 348 GPCRs [1] (setting [25]) was 1.9%; on 348 GPCRs [3] (setting [27]), -2.7%; on 348 GPCRs [7] (setting [31]), 0.00791%; at 348 GPCRs [8] (setting [32]), -2.21%; on 348 GPCRs [10] (setting [34]) it was -2.09%; on 348 GPCRs [11] (setting [35]) it was -3.7%. For the same compound, the activation at 10 µM on 348 GPCRs [2] (setting [26]) is -2.87%; at 348 GPCRs [4] (setting [28]), -2.03%; on 348 GPCRs [5] (setting [29]), -14.4%; on 348 GPCRs [6] (setting [30]), -0.301%; on 348 GPCRs [9] (setting [33]), -0.922%; at 348 GPCRs [12] (setting [36]), -0.223%.

On to `N#C[C@@]1(c2ccc3c(N)ncnn23)O[C@H](CO)[C@@H](O)[C@H]1O` [GS441524], for which the activation at 100 µM is 0.705% on 348 GPCRs [1] (setting [13]); -0.178% on 348 GPCRs [3] (setting [15]); -0.695% on 348 GPCRs [7] (setting [19]); -1.62% at 348 GPCRs [8] (setting [20]); 0.783% on 348 GPCRs [10] (setting [22]); 2.65% on 348 GPCRs [11] (setting [23]). For the same compound, the activation at 10 µM on 348 GPCRs [2] (setting [14]) is 0.908%; at 348 GPCRs [4] (setting [16]) it was -3.08%; at 348 GPCRs [5] (setting [17]), -5.06%; at 348 GPCRs [6] (setting [18]) it was -1.05%; on 348 GPCRs [9] (setting [21]), -1.18%; on 348 GPCRs [12] (setting [24]), -0.0977%.

On to `NC(=O)c1nc(F)cnc1O` [favipiravir, 6-fluoro-3-hydroxy-2-pyrazinecarboxamide], for which the activation at 100 µM was -0.249% at 348 GPCRs [1] (setting [13]); -0.921% at 348 GPCRs [2] (GPCR MC5R (melanocortin 5 receptor), 100μM, read-out: % GPCR activation compared to TPA); 0.282% at 348 GPCRs [3] (setting [15]); -0.62% at 348 GPCRs [4] (GPCR CXCR3 (C-X-C motif chemokine receptor 3), 100μM, read-out: % GPCR activation compared to TPA); -6.06% on 348 GPCRs [5] (GPCR P2Y4 (pyrimidinergic receptor P2Y, G-protein coupled, 4), 100μM, read-out: % GPCR activation compared to TPA); -0.692% on 348 GPCRs [6] (GPCR GPR50 (G Protein-Coupled Receptor 50), 100μM, read-out: % GPCR activation compared to TPA). The activation at 100 µM was -0.934% at 348 GPCRs [7] (setting [19]); 0.473% on 348 GPCRs [8] (setting [20]); -1.06% on 348 GPCRs [10] (setting [22]); 6.15% at 348 GPCRs [11] (setting [23]); -0.0195% on 348 GPCRs [12] (GPCR GPR55 (G Protein-Coupled Receptor 55), 100μM, read-out: % GPCR activation compared to TPA). The activation at 10 µM at 348 GPCRs [9] (setting [21]) was -2.99%.

As for `CCC(CC)COC(=O)[C@H](C)N[P@](=O)(OC[C@H]1O[C@@](C#N)(c2ccc3c(N)ncnn23)[C@H](O)[C@@H]1O)Oc1ccccc1` [remdesivir], the activation at 100 µM was 3.8% on 348 GPCRs [1] (setting [25]); -1.75% at 348 GPCRs [3] (setting [27]); 0.938% on 348 GPCRs [7] (setting [31]); 0.465% on 348 GPCRs [8] (setting [32]); 1.1% at 348 GPCRs [10] (setting [34]); 4.77% at 348 GPCRs [11] (setting [35]). Also, the activation at 10 µM at 348 GPCRs [2] (setting [26]) is 1.31%; on 348 GPCRs [4] (setting [28]), -0.708%; at 348 GPCRs [5] (setting [29]), -0.00402%; at 348 GPCRs [6] (setting [30]) it was -1.37%; on 348 GPCRs [9] (setting [33]) it was -2.26%; at 348 GPCRs [12] (setting [36]), -2.75%.
